{"source": "paper PMC13172357", "about": "(Nature Communications, 2026)", "key": {"[1]": {"system": "Panc89 cells", "experiment": "Confluence measurement (cell growth), Panc89", "type": "cell-based, human", "conditions": "Panc89, 1-10 µM, 72 h, 25 mM or 5 mM D-glucose"}, "[2]": {"biological_target": "T1, human USP7 full length protein (Homo sapiens, UniProt Q93009)", "T1 construct": "human USP7 full length protein", "T1 sequence (Q93009 whole entry)": "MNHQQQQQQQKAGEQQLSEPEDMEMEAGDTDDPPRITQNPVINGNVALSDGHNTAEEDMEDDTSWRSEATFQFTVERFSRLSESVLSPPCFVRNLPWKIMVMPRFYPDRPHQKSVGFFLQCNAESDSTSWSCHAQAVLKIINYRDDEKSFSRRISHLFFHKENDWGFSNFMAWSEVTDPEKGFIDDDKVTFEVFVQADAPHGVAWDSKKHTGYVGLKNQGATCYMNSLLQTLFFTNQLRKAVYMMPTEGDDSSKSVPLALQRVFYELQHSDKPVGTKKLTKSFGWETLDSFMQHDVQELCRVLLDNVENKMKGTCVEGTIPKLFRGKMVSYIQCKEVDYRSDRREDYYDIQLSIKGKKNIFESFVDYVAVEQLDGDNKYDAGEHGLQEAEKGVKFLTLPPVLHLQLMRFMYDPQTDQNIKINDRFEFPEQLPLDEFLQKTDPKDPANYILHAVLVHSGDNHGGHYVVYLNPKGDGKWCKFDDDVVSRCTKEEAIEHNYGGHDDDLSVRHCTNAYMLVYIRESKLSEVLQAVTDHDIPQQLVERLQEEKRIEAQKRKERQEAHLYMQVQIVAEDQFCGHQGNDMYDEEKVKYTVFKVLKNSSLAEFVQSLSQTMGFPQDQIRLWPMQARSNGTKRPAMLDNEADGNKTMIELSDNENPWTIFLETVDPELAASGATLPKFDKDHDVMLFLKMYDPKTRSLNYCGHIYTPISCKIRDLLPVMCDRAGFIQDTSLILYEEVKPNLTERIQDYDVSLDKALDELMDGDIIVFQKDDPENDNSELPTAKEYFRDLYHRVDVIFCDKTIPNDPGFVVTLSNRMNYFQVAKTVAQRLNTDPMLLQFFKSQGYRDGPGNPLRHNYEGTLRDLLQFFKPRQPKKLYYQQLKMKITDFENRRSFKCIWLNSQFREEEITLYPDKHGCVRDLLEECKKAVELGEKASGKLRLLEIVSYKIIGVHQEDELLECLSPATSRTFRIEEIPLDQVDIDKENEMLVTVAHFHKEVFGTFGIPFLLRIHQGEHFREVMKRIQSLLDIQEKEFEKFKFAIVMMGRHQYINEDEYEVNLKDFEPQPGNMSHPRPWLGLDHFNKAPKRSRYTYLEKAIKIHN", "experiment": "USP7 inhibition assay (Ubiquitin-Rhodamine110Gly cleavage)", "type": "biochemical", "conditions": "Ub-RhoG cleavage, read-out: IC50 (half-maximal inhibition)", "protocol": "USP7 inhibitors in DMSO were diluted in UbR buffer (40 mM Tris-HCl pH 8, 150 mM NaCl, 1 mM TCEP, 0.1 mg/mL BSA, 0.01% Tween20) to a concentration of 80 μM (4x). This stock was then further diluted in an 11-times serial dilution in UbR buffer containing 4% DMSO (4x). To this was added the same volume of human USP7 full length protein[59] […] The assay was initiated upon addition of 10 μL per well of Ubiquitin-Rhodamine110Gly (Ub-RhoG) (100 nM in UbR buffer, 2x). […] Normalization was carried out using samples featuring either no inhibitor or no enzyme as respective controls. […] Slopes of fluorescence over time curves were determined with Microsoft Excel through linear regression using the first 15 min of each measurement."}, "[3]": {"system": "proteins enriched from Panc89 lysate", "experiment": "Competitive pulldown with NK264-functionalized beads, mass spectrometry", "type": "binding, human", "conditions": "10 µM competitor", "protocol": "The next steps were carried out at room temperature unless noted otherwise. Afterwards, the samples were mixed shortly (1 min, 1000 rpm) and collected by short centrifugation (10 s, 200 ×g). Protein binding was induced by the addition of an equal volume of pure ethanol (10 min, 1000 rpm), the beads were collected by a brief centrifugation step (10 s, 200 ×g) and the plate was placed on a magnetic stand. Beads were allowed to bind for at least 5 min before the supernatant was removed. The beads were then taken up in 180 µL 80% ethanol and transferred to a fresh multiwell plate.\nSamples were incubated at 37 °C for 19 h while shaking (1300 rpm). On the next day, the samples were briefly centrifuged (10 s, 200 ×g) and placed on a magnet for 5 min. The clear solution containing the tryptic peptides was transferred to a fresh multiwell plate. The beads were taken up in 47 µL 25 mM ammonium bicarbonate and incubated while shaking (10 min, 1000 rpm)."}, "[4]": {"system": "Panc89 cells", "experiment": "Total proteome analysis, DDA mass spectrometry, Panc89 cells", "type": "cell-based, H. sapiens", "conditions": "DDA Panc89, 5 µM, 6, 24 or 72 h", "protocol": "Following treatment, cells were harvested, washed twice with PBS, and pellets were flash frozen in liquid nitrogen before being stored at −80 °C. Samples were prepared using the single-pot, solid-phase-enhanced sample-preparation (SP3) strategy. All buffers and solutions were prepared with mass spectrometry (MS)-grade water (Honeywell). Cell pellets were taken up in 100 µL 1x sample buffer (50 mM Hepes pH 8.0, 1% (wt/v) SDS, 1% (v/v) NP-40, 10 mM TCEP, 40 mM chloroacetamide) and samples were heated at 90 °C for 5 min prior to sonication with a Bioruptor UCD-300 (Diagenode) for ten cycles of 1 min pulse and 30 s pause at high power. The samples were then supplemented with Benzonase (20 U/sample) and sonified for 5 min in a water bath (Bandelin) followed by 30 min incubation at […].\nThe protein extracts were then centrifuged (20000 ×g, RT, 40 min) and the protein concentration of the cleared lysates was determined using the Pierce 660 nm Protein Assay Reagent (#22660; Thermo Scientific) with the Ionic Detergent Compatibility Reagent (#22663; Thermo Scientific) according to the manufacturers’ instructions. Next, 15 µg of total protein per sample in a volume of 100 µL sample buffer was transferred to a 500 µL 96-well plate and treated with 7 U of benzonase (#71206; Merck Millipore) in dilution buffer (20 mM Hepes pH 8.0, 2 mM MgCl2) at 37 °C for 30 min with agitation at 1500 rpm. After Benzonase treatment samples were heated to 90 °C for 5 min and after cooling down to room temperature, iodoacetamide to a final concentration of 10 mM was added for complete alkylation of cysteines (37 °C, 15 min, 1000 rpm, in the dark).\nThen, 3 µL of a 50 µg/µL 1:1 mixture of hydrophilic (#45152105050250) and hydrophobic (#65152105050250) carboxylate modified Sera-Mag SpeedBeads (Cytiva), that were washed twice with MS-grade water, were added to the samples. The next steps were carried out at room temperature unless noted otherwise. Afterwards, the samples were mixed shortly (1 min, 1000 rpm) and collected by short centrifugation (10 s, 200 ×g). […]"}, "[5]": {"system": "Ma-Mel-47 USP7 K.O. cells", "experiment": "Medium color switch (images), Ma-Mel-47 USP7 K.O. cells", "type": "cell-based, human", "conditions": "Ma-Mel-47 USP7-KO, 72 h, 5 µM NK192, 10 µM FT671, 1 µM NK266"}, "[6]": {"biological_target": "HiBiT-USP7 (Homo sapiens, UniProt Q93009)", "sequence (Q93009 whole entry, the tested form may be a part)": "as the sequence (Q93009 whole entry) above", "experiment": "HiBiT USP7 degradation assay, MV4-11 cells", "type": "cell-based", "conditions": "MV4-11 HiBiT-USP7, 6 h and 24 h", "protocol": "HiBiT-USP7 construct was cloned by extraction of USP7 fragment from plasmid pQHA-USP7 WT puroR (Addgene #46753) using appropriate restriction sites. The USP7 fragment was then ligated into the pRRL-PGK-HiBiT entry vector to generate the plasmid.\nLentiviral infection was used to generate stable a MV4-11 HiBiT cell line. Lentivirus was produced using plasmids psPAX2, pMD2.G, and HiBiT-USP7 plasmid in HEK293 cells. MV4-11 cells were infected with filtered virus supernatant and selected after 48 h of infection for the generation of the stable MV4-11^HiBiT-USP7 cell line.\nThe assay was performed as described previously. Briefly, MV4-11^HiBiT-USP7 cells were seeded and treated with compounds for the indicated time. Nano-Glo HiBiT Lytic Detection System (Promega) was used for the assay and luminescence was measured on a Tecan Spark microplate reader (Tecan). DC50 values were calculated using the sigmoidal dose-response (four parameters) equation in GraphPad Prism and are given as the concentration where 50% of the total signal was remaining. Dmax values are given as the maximum degradation observed at any concentration."}}, "data": [{"smiles": "C[C@H](CC(=O)N1CCC(O)(Cn2cnc3c(cnn3-c3ccc(F)cc3)c2=O)CC1)c1ccccc1", "note": "[NK192]", "values": [{"measurement": "Cell growth (in words)", "setting": "[1]", "value": "not affected"}, {"measurement": "IC50", "setting": "[2]", "value": 20, "unit": "nM"}, {"measurement": "Proteome-wide target specificity (in words)", "setting": "[3]", "value": "very high specificity for USP7"}, {"measurement": "USP7 protein level changes (in words)", "setting": "[4]", "value": "did not lead to USP7 protein level changes beyond the significance threshold"}, {"measurement": "Change of media color (in words)", "setting": "[5]", "value": "the same change of media color"}, {"measurement": "HiBiT-USP7 levels (in words)", "setting": "[6]", "value": "partial reduction of USP7 levels"}]}]}
